In US11578110B2, “Compounds for inducing tissue formation and uses thereof” (HISTIDE AG, priority 2015, dated 2023) one finds STRO-1 expression data, which are given here for 52 sequences.

No end group written: not given here.

In the first assay the test system is hMSCs. Description: STRO-1 stemness marker expression in hMSCs (immunostaining, ImageJ quantification). The class given is cell-based, Human. The note with it: SEQ ID NO: 1 to 49 tested in combination with a bioactive carrier (titanium, ceramics, PEEK, hydrogel, etc.). The method, then:
The cells were first fixed for 20 min with 4% paraformaldehyde/PBS at 4° C. After fixation, the cells were permeabilized in PBS containing 1% Triton X-100 for 15 min. Runx2, Osterix, Stro-1, Vinculin, Phalloidin, Osteopontin, Sox2, Sox9 antibodies were visualized by treating the cells with 1% (v/v) specific monoclonal antibodies for 1 hour at 37° C. Then the samples were incubated with Alexa fluor® 568 or 647 (F(ab′)2 fragment of IgG(H+L)) during 30 min at room temperature. The cell nuclei were counterstained in 20 ng/mL DAPI for 10 min at room temperature.
For this type of quantification the freeware image analysis ImageJ® software was used. The raw image was first converted to an 8-bit file, and then the unsharp mask feature was used (settings 1:0.2) to remove the image background (rolling ball radius 10). After smoothing, the resulting image, which appears similar to the original photomicrograph but with minimal background, was then converted to a binary image by setting a threshold. Threshold values were determined empirically by selecting a setting, which gave the most accurate binary image for a subset of randomly selected photomicrographs. The cell area was determined by manual delineation on raw fluorescent images. Total contact area and mean contact area per cell were calculated by “analyse particles” in ImageJ®. A minimum of 30 cells per condition were analyzed. Stro-1, CD-34+, and CD-105 expressions were determined using this procedure.
hMSCs were cultured on conventional cell culture plastic plates with or without the presence in the cell culture media of different GFR-binding compounds as defined hereins (SEQ ID NO: 50 to 104) in solution. […] This was probed by Stro-1 immunostaining after cell fixation as described in the Methods section. The quantification of Stro-1 positive contact numbers and areas was performed as described in the Methods section. A minimum of 30 cells per condition were analyzed.
RMSD values are always calculated for a GFR-binding peptide sequence exempt from any bioactive-carrier-affinity-containing group as defined herein (e.g. cysteine, WWFWG, GTPGP, etc. . . . ). When needed i.e. when attachment to a bioactive carrier is contemplated, the bioactive-carrier-affinity-containing group is then present in the GFR-binding compound when it is biologically tested. Using the method detailed in the description, the RMSD of 57 previously reported peptide sequences have been determined (Table 6) and correlated with the expression of STRO-1 after grafted on a PET surface via a procedure as already described above. […] One should note that it is commonly admitted that the expression of STRO-1 in a cell is indicative of a cell that is in a substantially non-differentiated state and the decrease of its expression of at least about 20% is indicative of a cell that has started a processes of differentiation but which may not result in the differentiation of the cell. A decrease of more than 50% would be indicative of the presence of a significant shift towards a differentiated state. A decrease of more than 70% would be indicative of the presence of a very important shift towards a differentiated state. A sustained decrease (e.g. for at least 96 h) of more than 50% or 70% would be indicative of the presence of an even more important shift towards a differentiated state.
Likewise, using the method detailed in the description, the RMSD of 87 GFR-binding peptide sequence representatives of the invention have been determined (Table 7) and correlated with the expression of STRO-1 after grafted on a PET surface via a procedure as already described above. SEQ ID NO: 1 to 49 were tested in combination with a bioactive carrier as defined above in the Examples Section (i.e. titanium, ceramics, PEEK, hydrogel, etc. . . . ), whereas SEQ ID NO: 1143 to 1180 were tested in solution.
Turning to AAPASSSVPTRLSAISMLYL [SEQ ID NO: 2], the STRO-1 expression was 18%.

For the sequence ASAAPSSVPAALSPISILYI [SEQ ID NO: 44], the STRO-1 expression came out at 15%.

ASASPSSTQVDLRPVQVRKI [SEQ ID NO: 40]: the STRO-1 expression is on record as 36%.

Regarding ASASPSSVSQDLSAISMLYL [SEQ ID NO: 15], the STRO-1 expression came out at 13%.

As for AVPKASSAPTKLSAISMLYL [SEQ ID NO: 19], the STRO-1 expression is 19%.

As to GGGKASSVPTKLSAISMLYL [SEQ ID NO: 21], the STRO-1 expression was 30%.

For the sequence GIPEPSSVPEKMSATSVLYY [SEQ ID NO: 7], the STRO-1 expression is 22%.

Regarding GSAGPSSVPTKMSAISMLYL [SEQ ID NO: 1], the STRO-1 expression is 21%.

Regarding GSAGPSSVPTKMSPISVLYK [SEQ ID NO: 8], the STRO-1 expression was found to be 31%.

Turning to “GTPGPAAPASSSVPARLSAISMLYL (not fully specified) [SEQ ID NO: 35]”, the STRO-1 expression stood at 19%.

Regarding “GTPGPASSVPTKLSAISMLYL (GTPGPAXXVPTKLSAISMLYL; GFR-binding peptide; MOD_RES (7)..(8): Xaa is C or S) [SEQ ID NO: 26]”, the STRO-1 expression worked out at 23%.

Consider “GTPGPGSAGPSSTPTKMSAISMLYL (GTPGPGSAGPXXTPTKMSAISMLYL; GFR-binding peptide; MOD_RES (11)..(12): Xaa is C or S) [SEQ ID NO: 34]”, for which the STRO-1 expression was determined as 26%.

“GTPGPNDEGLESAPTGQNAISVLYF (GTPGPNDEGLEXAPTGQNAISVLYF; GFR-binding peptide; MOD_RES (12)..(12): Xaa is C or S) [SEQ ID NO: 31]”: the STRO-1 expression was 32%.

Regarding “GTPGPPSSVPTKLSPISVLYK (GTPGPPXXVPTKLSPISVLYK; GFR-binding peptide; MOD_RES (7)..(8): Xaa is C or S) [SEQ ID NO: 30]”, the STRO-1 expression turned out to be 26%.

For “GTPGPPTSVPTKLSPISVLYK (GFR-binding peptide) [SEQ ID NO: 29]”, the STRO-1 expression is 27%.

As to “GTPGPVPQELEPLTILYY (GFR-binding peptide) [SEQ ID NO: 24]”, the STRO-1 expression was 16%.

For “GTPGPVPTEESAISMLYL (GFR-binding peptide) [SEQ ID NO: 28]”, the STRO-1 expression came out at 22%.

“GTPGPVPTELSPISVLYK (GFR-binding peptide) [SEQ ID NO: 25]”: the STRO-1 expression was determined as 17%.

As to “GTPGPVPTGQSAISMLYL (GFR-binding peptide) [SEQ ID NO: 27]”, the STRO-1 expression was found to be 24%.

On to HVPKPSSAPTKLSAISMLYL [SEQ ID NO: 12], for which the STRO-1 expression was determined as 28%.

Turning to HVPKPSSVPTKLSPISVLYK [SEQ ID NO: 16], the STRO-1 expression is listed as 23%.

Consider HVTKPTSVPEKLSSLSILFF [SEQ ID NO: 9], for which the STRO-1 expression came to 29%.

The same assay, now with this note: SEQ ID NO: 1143 to 1180 tested in solution.
As for “AASKASSSRVELRSVKIAKV (GFR-binding peptide) [SEQ ID NO: 1152]”, the STRO-1 expression is 33%.

Take “AASKASSSRVKMSPINVLYF (GFR-binding peptide) [SEQ ID NO: 1167]”: the STRO-1 expression is 19%.

As for “AASKASSTPTDLNAISTLYF (GFR-binding peptide) [SEQ ID NO: 1158]”, the STRO-1 expression is recorded as 20%.

With “AASKASSVPEKMRPVQTRKI (GFR-binding peptide) [SEQ ID NO: 1179]”, the STRO-1 expression stood at 32%.

For the sequence “AASKASSVPQEEEPLPMVYY (GFR-binding peptide) [SEQ ID NO: 1149]”, the STRO-1 expression is 23%.

Consider “AASKASSVPQRLRSVKVAKV (GFR-binding peptide) [SEQ ID NO: 1177]”, for which the STRO-1 expression amounted to 31%.

Consider “GIPEPSSAPTELSATSILYY (GFR-binding peptide) [SEQ ID NO: 1146]”, for which the STRO-1 expression was found to be 20%.

“GIPEPSSAPTRLEPISMLYL (GFR-binding peptide) [SEQ ID NO: 1164]”: the STRO-1 expression was found to be 16%.

With “GIPEPSSAPVDLKPLSTLYV (GFR-binding peptide) [SEQ ID NO: 1148]”, the STRO-1 expression worked out at 11%.

As for “GIPEPSSAPVDMRPVQIRKI (GFR-binding peptide) [SEQ ID NO: 1180]”, the STRO-1 expression came to 30%.

Consider “GIPEPSSAPVEEEPLTTLYY (GFR-binding peptide) [SEQ ID NO: 1174]”, for which the STRO-1 expression came out at 21%.

With “GIPEPSSAPVGQEPLPMVYY (GFR-binding peptide) [SEQ ID NO: 1172]”, the STRO-1 expression amounted to 28%.

For “GIPEPSSVSQEESSLSTLFF (GFR-binding peptide) [SEQ ID NO: 1156]”, the STRO-1 expression turned out to be 19%.

For the sequence “GIPEPSSVSQELSATSMLYY (GFR-binding peptide) [SEQ ID NO: 1160]”, the STRO-1 expression amounted to 22%.

The assay is the same for the next values; noted with them: grafted on a PET surface.
In the case of “AETLHTLGLSAPVIESAISDAI (Previously reported sequence) [SEQ ID NO: 1136, reference compound]”, the STRO-1 expression is on record as 93%.

Take “ANINKDRDNVPAATSSLSKAYNP (Previously reported sequence) [SEQ ID NO: 1119, reference compound]”: the STRO-1 expression is recorded as 92%.

“APTKLNAISVLYFDDSSNVILKKYRNMIVKS (Previously reported sequence) [SEQ ID NO: 1126, reference compound]”: the STRO-1 expression is recorded as 84%.

Regarding “APTQLSAISVL (Previously reported sequence) [SEQ ID NO: 1127, reference compound]”, the STRO-1 expression turned out to be 93%.

Regarding “CCAPTELSAISVLYFDDSSNVILKKYRNMVVRACGCR (Previously reported sequence) [SEQ ID NO: 1139, reference compound]”, the STRO-1 expression came to 81%.

As to “CCAPTQLSAISVLYFDDSSNVILKKYRNMVVRACGCR (Previously reported sequence) [SEQ ID NO: 1140, reference compound]”, the STRO-1 expression stood at 82%.

On to “CIPKPSSAPTELSAISMLYL (Previously reported sequence) [SEQ ID NO: 1134, reference compound]”, for which the STRO-1 expression is listed as 83%.

Turning to “CKIPKPSSAPTELSAISMLYL (Previously reported sequence) [SEQ ID NO: 1135, reference compound]”, the STRO-1 expression is on record as 78%.

On to “CPKPSSAPTELSAISMLL (Previously reported sequence) [SEQ ID NO: 1130, reference compound]”, for which the STRO-1 expression is 79%.

As to “CVTKPLSSLLFPNWNTTTTPTPP (Previously reported sequence) [SEQ ID NO: 1102, reference compound]”, the STRO-1 expression is on record as 92%.

With “DKPEESSSTPTHAQCICSSLSEAIVSSVLSTRLVLSQISLTRAKRAFE (Previously reported sequence) [SEQ ID NO: 1121, reference compound]”, the STRO-1 expression came to 87%.

As for “DPLPIIYYVGRNVRVEQLSNMVVRACKCS (Previously reported sequence) [SEQ ID NO: 1089, reference compound]”, the STRO-1 expression is 97%.

In the case of “ENVNLKKYRNMIVKSCGCH (Previously reported sequence) [SEQ ID NO: 1090, reference compound]”, the STRO-1 expression is listed as 97%.

In the case of “FDSRVLKSAISFKENIIF (Previously reported sequence) [SEQ ID NO: 1128, reference compound]”, the STRO-1 expression is given as 89%.

For the sequence “HIRSTTSSYVSLKSNITNRTIQTPTYSYT (Previously reported sequence) [SEQ ID NO: 1092, reference compound]”, the STRO-1 expression turned out to be 98%.

“IKSPARHSAPTHQEPLP (Previously reported sequence) [SEQ ID NO: 1097, reference compound]”: the STRO-1 expression is on record as 98%.
